Here are results for 27 molecules from patent US8859572B2, “Sulfone substituted 2,3-dihydroimidazo [1,2-C] quinazoline derivatives useful for treating hyper-proliferative disorders and diseases with angiogenesis” (Bayer Intellectual Property GmbH, priority 2008, dated 2014).

The assay concerns the target T1, PI3Kβ (recombinant truncated form (ΔN1-108) of the human p110β subunit of PI3K) (Homo sapiens, UniProt P42338).
T1 construct: His6 (N); made in house; host or cells: Spodoptera frugiperda Sf9 insect cells
The assay can be described thus: Solid-phase lipid kinase assay of PI3Kβ. The settings on record: 7.5 ng protein/well, final 10 μM ATP, 2 h at rt. Format: biochemical. As for the experimental part:
To assess inhibition of PI3Kα by compounds, the Maxisorp™ plates were coated with 50 μL/well of a solution containing 50 μg/ml PtdIns and 50 μg/ml PtdSer dissolved in chloroform:ethanol (3:7). The plates were subsequently air-dried by incubation for at least 2 h in a fume hood. The reaction was set up by mixing 25 μL/well of assay buffer 2×(100 mM MOPSO/NaOH, 0.2 M NaCl, pH 7.0, 8 mM MgCl2, 2 mg/mL BSA (fatty acid-free)), and 7.5 ng/well PI3Kα in the lipid pre-coated plate. Test compounds at different concentrations (0.0, 0.003, 0.01 0.03, 0.1, 0.3, 1.0, 3.0 and 10 μM) were added in 2% DMSO. The reaction was initiated by adding 20 μL/well of ATP mix (final 10 μM ATP; 0.05 μCi/well [γ^33P]ATP). After incubation at rt for 2 h, the reaction was terminated by adding 50 μl/well stop solution (50 mM EDTA, pH 8.0). The plate was then washed twice with Tris-buffered saline (TBS, pH 7.4). MicroScint PS™ (PACKARD) scintillation mix was added at 100 μL/well, and radioactivity was counted using a TopCount™ (PACKARD) scintillation counter.
The inhibition percent at each concentration of compound was calculated, and IC50 values were determined from the inhibition of curve.
A recombinant truncated form (ΔN1-108) of the human p110β subunit of PI3K with an N-terminal His6-Tag was expressed in S. frugiperda 9 insect cells. Recombinant human PI3Kγ (full length human PI3K p110γ fused with a His6-tag at the C-terminus expressed in S. frugiperda 9 insect cells) was obtained from ALEXIS BIOCHEMICALS (#201-055-0010; San Diego, Calif.).
Kinase assays using recombinant truncated p110β or the full length p110γ were performed in a similar manner as described in the determination of IC50 values of compounds in the kinase assay of PI3Kα except that these isoforms were assayed using 7.5 ng and 25.0 ng of protein/well, respectively.

T1 sequence (P42338 109-1070): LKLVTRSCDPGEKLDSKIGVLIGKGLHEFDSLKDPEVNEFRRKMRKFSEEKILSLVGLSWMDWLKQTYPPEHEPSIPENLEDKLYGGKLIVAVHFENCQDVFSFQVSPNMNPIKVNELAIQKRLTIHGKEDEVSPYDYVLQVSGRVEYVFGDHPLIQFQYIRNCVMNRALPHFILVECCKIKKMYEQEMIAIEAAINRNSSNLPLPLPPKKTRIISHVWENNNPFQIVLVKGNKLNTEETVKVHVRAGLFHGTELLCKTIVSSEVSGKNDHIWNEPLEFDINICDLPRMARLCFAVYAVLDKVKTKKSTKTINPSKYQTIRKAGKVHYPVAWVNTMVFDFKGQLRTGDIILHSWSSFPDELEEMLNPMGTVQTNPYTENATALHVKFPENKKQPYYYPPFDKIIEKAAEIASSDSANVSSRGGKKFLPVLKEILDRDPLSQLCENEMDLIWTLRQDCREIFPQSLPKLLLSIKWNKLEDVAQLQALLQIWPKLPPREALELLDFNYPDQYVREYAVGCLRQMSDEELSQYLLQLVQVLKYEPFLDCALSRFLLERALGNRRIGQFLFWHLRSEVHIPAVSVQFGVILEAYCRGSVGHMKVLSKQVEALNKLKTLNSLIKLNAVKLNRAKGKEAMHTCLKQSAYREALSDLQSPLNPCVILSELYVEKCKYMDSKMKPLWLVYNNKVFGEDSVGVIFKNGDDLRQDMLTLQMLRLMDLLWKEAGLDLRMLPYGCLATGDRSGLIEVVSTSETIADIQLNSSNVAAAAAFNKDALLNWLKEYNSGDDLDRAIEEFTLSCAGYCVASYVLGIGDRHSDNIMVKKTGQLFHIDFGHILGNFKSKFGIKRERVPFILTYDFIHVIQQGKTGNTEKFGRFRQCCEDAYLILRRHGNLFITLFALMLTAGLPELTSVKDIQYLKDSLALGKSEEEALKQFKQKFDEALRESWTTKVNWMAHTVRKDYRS

The IC50 is the concentration at which inhibition is half-maximal. With `COc1c(OCCCS(=O)(=O)N2CCN(C)CC2)ccc2c1N=C(NC(=O)c1cccnc1)N1CCN=C21` [Example 1, N-(7-methoxy-8-{3-[(4-methylpiperazin-1-yl)sulfonyl]propoxy}-2,3-dihydroimidazo[1,2-c]quinazolin-5-yl)nicotinamide], the IC50 is less than 100 nM.

For the molecule `COc1c(OCc2ccc(S(C)(=O)=O)cc2)ccc2c1N=C(NC(=O)c1cccnc1)N1CCN=C21` [Example 2, N-(7-methoxy-8-{[4-(methylsulfonyl)benzyl]oxy}-2,3-dihydroimidazo[1,2-c]quinazolin-5-yl)nicotinamide], the IC50 fell in the range of 100 to 3000 nM.

As for `COc1c(OCCCS(=O)(=O)N2CCOCC2)ccc2c1N=C(NC(=O)c1cccnc1)N1CCN=C21` [Example 3, N-{7-methoxy-8-[3-(morpholin-4-ylsulfonyl)propoxy]-2,3-dihydroimidazo[1,2-c]quinazolin-5-yl}nicotinamide], the IC50 was less than 100 nM.

In the case of `COc1c(OCCCN2CCS(=O)(=O)CC2)ccc2c1N=C(NC(=O)c1cccnc1)N1CCN=C21` [Example 4, N-{8-[3-(1,1-dioxidothiomorpholin-4-yl)propoxy]-7-methoxy-2,3-dihydroimidazo[1,2-c]quinazolin-5-yl}nicotinamide], the IC50 is less than 100 nM.

For `COc1c(OCCCS(=O)(=O)N(C)C)ccc2c1N=C(NC(=O)c1cccnc1)N1CCN=C21` [Example 5, N-(8-{3-[(dimethylamino)sulfonyl]propoxy}-7-methoxy-2,3-dihydroimidazo[1,2-c]quinazolin-5-yl)nicotinamide], the IC50 was less than 100 nM.

On to `CCN(CC)S(=O)(=O)CCCOc1ccc2c(c1OC)N=C(NC(=O)c1cccnc1)N1CCN=C21` [Example 6, N-(8-{3-[(diethylamino)sulfonyl]propoxy}-7-methoxy-2,3-dihydroimidazo[1,2-c]quinazolin-5-yl)nicotinamide], for which the IC50 is less than 100 nM.

On to `O=C(NC1=Nc2c(OCCCS(=O)(=O)N3CCOCC3)cccc2C2=NCCN12)c1cccnc1` [Example 7, N-{7-[3-(morpholin-4-ylsulfonyl)propoxy]-2,3-dihydroimidazo[1,2-c]quinazolin-5-yl}nicotinamide], for which the IC50 lay in the range of 100 to 3000 nM.

As for `CN1CCN(S(=O)(=O)CCCOc2cccc3c2N=C(NC(=O)c2cccnc2)N2CCN=C32)CC1` [Example 8, N-(7-{3-[(4-methylpiperazin-1-yl)sulfonyl]propoxy}-2,3-dihydroimidazo[1,2-c]quinazolin-5-yl)nicotinamide], the concentration for half-maximal inhibition (IC50) fell in the range of 100 to 3000 nM.

Regarding `O=C(NC1=Nc2c(OCCCN3CCS(=O)(=O)CC3)cccc2C2=NCCN12)c1cccnc1` [Example 9, N-{7-[3-(1,1-dioxidothiomorpholin-4-yl)propoxy]-2,3 dihydroimidazo[1,2-c]quinazolin-5-yl}nicotinamide], the IC50 lay within 100 to 3000 nM.

In the case of `CS(=O)(=O)c1ccc(COc2cccc3c2N=C(NC(=O)c2cccnc2)N2CCN=C32)cc1` [Example 10, N-(7-{[4-(methylsulfonyl)benzyl]oxy}-2,3-dihydroimidazo[1,2-c]quinazolin-5-yl)nicotinamide], the IC50 is less than 100 nM.

Regarding `CN(C)S(=O)(=O)CCCOc1cccc2c1N=C(NC(=O)c1cccnc1)N1CCN=C21` [Example 11, N-(7-{3-[(dimethylamino)sulfonyl]propoxy}-2,3-dihydroimidazo[1,2-c]quinazolin-5-yl)nicotinamide], the IC50 was less than 100 nM.

Consider `O=C(NC1=Nc2c(ccc(OCCCN3CCOCC3)c2OCCCS(=O)(=O)N2CCOCC2)C2=NCCN12)c1cccnc1` [Example 12], for which the IC50 is less than 100 nM.

As for `CN1CCN(S(=O)(=O)CCCOc2c(OCCCN3CCOCC3)ccc3c2N=C(NC(=O)c2cccnc2)N2CCN=C32)CC1` [Example 13, N-[7-{3-[(4-methylpiperazin-1-yl)sulfonyl]propoxy}-8-(3-morpholin-4-ylpropoxy)-2,3-dihydroimidazo[1,2-c]quinazolin-5-yl]nicotinamide], the IC50 was less than 100 nM.

With `CCN(CC)S(=O)(=O)CCCOc1c(OCCCN2CCOCC2)ccc2c1N=C(NC(=O)c1cccnc1)N1CCN=C21` [Example 14, N-[7-{3-[(Diethylamino)sulfonyl]propoxy}-8-(3-morpholin-4-ylpropoxy)-2,3-dihydroimidazo[1,2-c]quinazolin-5-yl]nicotinamide], the IC50 was less than 100 nM.

Turning to `CN(C)S(=O)(=O)CCCOc1c(OCCCN2CCOCC2)ccc2c1N=C(NC(=O)c1cccnc1)N1CCN=C21` [Example 15, N-[7-{3-[(dimethylamino)sulfonyl]propoxy}-8-(3-morpholin-4-ylpropoxy)-2,3-dihydroimidazo[1,2-c]quinazolin-5-yl]nicotinamide], the 50% inhibitory concentration (IC50) was less than 100 nM.

In the case of `COc1c(OCc2ccc(S(C)(=O)=O)cc2)ccc2c1N=C(NC(=O)c1cnc(N)nc1)N1CCN=C21` [Example 16, 2-amino-N-(7-methoxy-8-{[4-(methylsulfonyl)benzyl]oxy}-2,3-dihydroimidazo[1,2-c]quinazolin-5-yl)pyrimidine-5-carboxamide], the IC50 is less than 100 nM.

As for `COc1c(OCCCS(=O)(=O)N(C)C)ccc2c1N=C(NC(=O)c1cnc(N)nc1)N1CCN=C21` [Example 17, 2-amino-N-(8-{3-[(dimethylamino)sulfonyl]propoxy}-7-methoxy-2,3-dihydroimidazo[1,2-c]quinazolin-5-yl)pyrimidine-5-carboxamide], the IC50 is less than 100 nM.

In the case of `COc1c(OCCCS(=O)(=O)N(C)C)ccc2c1N=C(NC(=O)c1ccc(N)nc1)N1CCN=C21` [Example 18, 6-amino-N-(8-{3-[(dimethylamino)sulfonyl]propoxy}-7-methoxy-2,3-dihydroimidazo[1,2-c]quinazolin-5-yl)nicotinamide], the IC50 is less than 100 nM.

Take `COc1c(OCCCN2CCS(=O)(=O)CC2)ccc2c1N=C(NC(=O)c1ccc(N)nc1)N1CCN=C21` [Example 19, 6-amino-N-{8-[3-(1,1-dioxidothiomorpholin-4-yl)propoxy]-7-methoxy-2,3-dihydroimidazo[1,2-c]quinazolin-5-yl}nicotinamide]: the IC50 was less than 100 nM.

`COc1c(OCc2ccc(S(C)(=O)=O)cc2)ccc2c1N=C(NC(=O)c1ccc(N)nc1)N1CCN=C21` [Example 20, 6-amino-N-(7-methoxy-8-{[4-(methylsulfonyl)benzyl]oxy}-2,3-dihydroimidazo[1,2-c]quinazolin-5-yl)nicotinamide]: the IC50 is less than 100 nM.

Take `COc1c(OCCCN2CCS(=O)(=O)CC2)ccc2c1N=C(NC(=O)c1cnc(N)nc1)N1CCN=C21` [Example 21, 2-amino-N-{8-[3-(1,1-dioxidothiomorpholin-4-yl)propoxy]-7-methoxy-2,3-dihydroimidazo[1,2-c]quinazolin-5-yl}pyrimidine-5-carboxamide]: the IC50 was less than 100 nM.

On to `COc1c(OCCCS(=O)(=O)N2CCOCC2)ccc2c1N=C(NC(=O)c1ccc(N)nc1)N1CCN=C21` [Example 22, 6-amino-N-{7-methoxy-8-[3-(morpholin-4-ylsulfonyl)propoxy]-2,3-dihydroimidazo[1,2-c]quinazolin-5-yl}nicotinamide], for which the IC50 is less than 100 nM.

On to `COc1c(OCCCS(=O)(=O)N2CCOCC2)ccc2c1N=C(NC(=O)c1cnc(N)nc1)N1CCN=C21` [Example 23, 2-amino-N-{7-methoxy-8-[3-(morpholin-4-ylsulfonyl)propoxy]-2,3-dihydroimidazo[1,2-c]quinazolin-5-yl}pyrimidine-5-carboxamide], for which the half-maximal inhibitory concentration (IC50) is less than 100 nM.

Regarding `O=C(NC1=Nc2cc(OCCCS(=O)(=O)N3CCOCC3)ccc2C2=NCCN12)c1cccnc1` [Example 24, N-{8-[3-(morpholin-4-ylsulfonyl)propoxy]-2,3-dihydroimidazo[1,2-c]quinazolin-5-yl}nicotinamide], the IC50 was 100 to 3000 nM.

In the case of `CN1CCN(S(=O)(=O)CCCOc2ccc3c(c2)N=C(NC(=O)c2cccnc2)N2CCN=C32)CC1` [Example 25, N-(8-{3-[(4-methylpiperazin-1-yl)sulfonyl]propoxy}-2,3-dihydroimidazo[1,2-c]quinazolin-5-yl)nicotinamide], the IC50 lay within 100 to 3000 nM.

As for `CS(=O)(=O)c1ccc(COc2ccc3c(c2)N=C(NC(=O)c2cccnc2)N2CCN=C32)cc1` [Example 26, N-(8-{[4-(methylsulfonyl)benzyl]oxy}-2,3-dihydroimidazo[1,2-c]quinazolin-5-yl)nicotinamide], the IC50 lay within 100 to 3000 nM.

As for `Cc1nc(C)c(C(=O)NC2=Nc3cc(OCc4ccc(S(C)(=O)=O)cc4)ccc3C3=NCCN23)s1` [Example 27, 2,4-dimethyl-N-(8-{[4-(methylsulfonyl)benzyl]oxy}-2,3-dihydroimidazo[1,2-c]quinazolin-5-yl)-1,3-thiazole-5-carboxamide], the IC50 fell in the range of 100 to 3000 nM.
